Measurements: article PMC9696085, “Fully Symmetric Cyclodextrin Polycarboxylates: How to Determine Reliable Protonation Constants from NMR Titration Data” (International Journal of Molecular Sciences, 2022)
Where “and” joins values, the source holds several entries; their conditions need not be identical. Identical values can stand only once. Like-named read-outs stand apart in the source and are kept apart here. One block for each compound: values may come before it.

Experiments:
[1] = 1H NMR-pH titration, protonation constants; assay type: physicochemical; details: for pKa: H2O:D2O = 9:1 solvent mixture; for log k: site-binding model without any pair-interactivity parameters (unsatisfactory fit); for pε12 = averaged interactivity parameter pε¯: site-binding model with a single interactivity parameter; for log kA (carboxylate core microconstant): site-binding model with a single interactivity parameter pε12 (pε¯)
Method: The pH meter readings were recorded using a Metrohm pH meter, equipped with a Metrohm 6.0234.110 combined glass electrode. A four-point calibration using pH 2.00, pH 4.00, pH 7.00 and pH 11.00 standard buffer solutions were performed directly before pH adjustments. The pH measurements were performed in 25 mL vessels with proper stirring before transferring 600 μL sample solutions into the NMR tubes. Solutions were prepared in the pH range of 1.50–8.70 with 0.30 increments using 0.9 M, 0.5 M and 0.1 M sodium hydroxide and hydrochloric acid solutions in H2O:D2O = 9:1.
For structural characterizations of CD derivatives in D2O, a 600 MHz Varian DDR NMR spectrometer equipped with a 5 mm inverse-detection gradient probe or a 400 MHz Varian Mercury Plus spectrometer equipped with a 5mm Varian 400 Automation Triple Resonance Broadband Pulsed Field Gradient probe was used. For NMR-pH titrations, the same instruments were used. The pH-dependent series of ^1H NMR spectra were recorded in a solvent mixture of H2O:D2O = 9:1 by volume, where the constant ionic strength and the buffer capacity were adjusted using 0.05 M sodium chloride and 0.05 M acetic acid-d4. An appropriate amount of CD was weighed to obtain a 1 mM solution and finally one drop of methanol was added as a chemical shift reference (3.310 ppm). The water resonance was diminished by the dpfgse pulse sequence or presaturation. All the spectra were processed using the MestReNova v9.0.1-13254 (Mestralab Research, S.L., Santiago de Compostela, Spain) software.
The standard macroscopic evaluation of NMR-pH titration curves (Equation (3) in Section 2.2) was performed with the following software tools: Microcal Origin Pro 8 (OriginLab Corp., Northampton, MA, USA), HypNMR2018 [38], OPIUM [39] and home-written R scripts (R version 4.1.2, The R Foundation, Vienna, Austria) using the nls module. The equidistant macroscopic (Equation (8)) and Q-fitting (Equations (4) and (11)) models were fitted both by Origin and our R-scripts to verify their equivalent performance regarding statistical description of the parameter estimates. The microscopic cluster expansion model in Section 2.5 requires summation of >100 variables which is unfeasible in the form of an explicit model function required by commercial data-fitting software like Origin. The enumeration of microspecies was therefore accomplished in a custom-written R script. To assess the robustness of our data-fitting model as well as the error propagation of the optimized log k and pε parameters to the derived log K macroconstants, Monte Carlo simulations on >1000 replicates were performed in R.

[2] = parameters: method as in PMID 18613172; details: literature, cited from earlier work
[3] = ED macro or Q-fitting evaluation, ? = physically unrealistic, SD in parentheses
[4] = ED macro or Q-fitting evaluation, H2O:D2O = 9:1, 0.05 M NaCl, SD in parentheses
[5] = from ED macro or Q-fitting macroconstants by Eq. 18
[6] = from ED macro or Q-fitting macroconstants by Eq. 18, ? = physically unrealistic
[7] = site-binding (SB) microscopic evaluation
[8] = site-binding (SB) microscopic evaluation, converted from log kA and pε, errors by Monte Carlo
[9] = site-binding model with two interactivity parameters, standard deviation 138, overparametrized
[10] = converted from optimized microscopic basicity parameters (site-binding model)

- log K4 [1, 3]: 4.70 (0.14)
- log K6 [1, 3]: 3.77 (0.07)
- log K1 [1, 4]: 6.43 (0.07)
- log K2 [1, 4]: 5.79 (0.09)
- log K3 [1, 4]: 5.26 (0.11)
- pKa ([1]; converted from optimized microscopic basicity parameters (site-binding model), read-out: macroscopic pKa, 1st of the set): 3.84
- pKa ([1]; converted from optimized microscopic basicity parameters (site-binding model), read-out: macroscopic pKa, 2nd of the set): 4.35
- pKa ([1]; converted from optimized microscopic basicity parameters (site-binding model), read-out: macroscopic pKa, 3rd of the set): 4.81
- pKa ([1]; converted from optimized microscopic basicity parameters (site-binding model), read-out: macroscopic pKa, 4th of the set): 5.31
- pKa ([1]; converted from optimized microscopic basicity parameters (site-binding model), read-out: macroscopic pKa, 5th of the set): 5.78
- pKa ([1]; converted from optimized microscopic basicity parameters (site-binding model), read-out: macroscopic pKa, 6th of the set): 6.28
- log k¯1 (averaged microconstant) [1, 5]: 5.65 (0.07)
- log k¯2 (averaged microconstant) [1, 5]: 5.39 (0.09)
- log k¯3 (averaged microconstant) [1, 5]: 5.13 (0.12)
- log k¯6 (averaged microconstant) [1, 6]: 4.55 (0.07)
- log k¯1 (averaged microconstant) [1, 7]: 5.51 (0.02)
- log k¯2 (averaged microconstant) [1, 7]: 5.38 (0.02)
- log k¯3 (averaged microconstant) [1, 7]: 5.18 (0.02)
- log k¯4 (averaged microconstant) [1, 7]: 4.94 (0.02)
- log k¯5 (averaged microconstant) [1, 7]: 4.75 (0.02)
- log k¯6 (averaged microconstant) [1, 7]: 4.62 (0.02)
- log K1 [1, 8]: 6.28 (0.02)
- log K2 [1, 8]: 5.78 (0.02)
- log K3 [1, 8]: 5.31 (0.02)
- log K4 [1, 8]: 4.81 (0.02)
- log K5 [1, 8]: 4.35 (0.02)
- log K6 [1, 8]: 3.84 (0.02)
- log kA ([1]; site-binding model with two interactivity parameters (pε12 and pε13), overparametrized): 5.63 (7)
- pε12 [1, 9]: 0.28
- pε13 [1, 9]: 0.28
- log k [1]: 5.049
SMILES: O=C(O)CCSC[C@H]1O[C@@H]2O[C@H]3[C@H](O)[C@@H](O)[C@@H](O[C@H]4[C@H](O)[C@@H](O)[C@@H](O[C@H]5[C@H](O)[C@@H](O)[C@@H](O[C@H]6[C@H](O)[C@@H](O)[C@@H](O[C@H]7[C@H](O)[C@@H](O)[C@@H](O[C@H]1[C@H](O)[C@H]2O)O[C@@H]7CSCCC(=O)O)O[C@@H]6CSCCC(=O)O)O[C@@H]5CSCCC(=O)O)O[C@@H]4CSCCC(=O)O)O[C@@H]3CSCCC(=O)O [Suα-CD, sualphadex]

- log K5 [1, 3]: 4.54 (0.06)
- log K7 [1, 3]: 3.69 (0.03)
- log K1 [1, 4]: 6.60 (0.03)
- log K2 [1, 4]: 6.18 (0.04)
- log K3 [1, 4]: 5.27 (0.08)
- macroscopic pKa, 1st of the set [1, 10]: 3.82
- macroscopic pKa, 2nd of the set [1, 10]: 4.31
- macroscopic pKa, 3rd of the set [1, 10]: 4.73
- macroscopic pKa, 4th of the set [1, 10]: 5.18
- macroscopic pKa, 5th of the set [1, 10]: 5.64
- macroscopic pKa, 6th of the set [1, 10]: 6.06
- macroscopic pKa, 7th of the set [1, 10]: 6.54
- log k¯1 (averaged microconstant) [1, 5]: 5.75 (0.03)
- log k¯2 (averaged microconstant) [1, 5]: 5.71 (0.04)
- log k¯3 (averaged microconstant) [1, 5]: 5.04 (0.08)
- log k¯5 (averaged microconstant) [1, 6]: 4.76 (0.06)
- log k¯7 (averaged microconstant) [1, 6]: 4.53 (0.03)
- log k¯1 (averaged microconstant) [1, 7]: 5.70 (0.02)
- log k¯2 (averaged microconstant) [1, 7]: 5.58 (0.02)
- log k¯3 (averaged microconstant) [1, 7]: 5.42 (0.02)
- log k¯4 (averaged microconstant) [1, 7]: 5.18 (0.01)
- log k¯5 (averaged microconstant) [1, 7]: 4.95 (0.02)
- log k¯6 (averaged microconstant) [1, 7]: 4.78 (0.02)
- log k¯7 (averaged microconstant) [1, 7]: 4.67 (0.02)
- log K1 [1, 8]: 6.54 (0.02)
- log K2 [1, 8]: 6.06 (0.02)
- log K3 [1, 8]: 5.64 (0.02)
- log K4 [1, 8]: 5.18 (0.01)
- log K5 [1, 8]: 4.73 (0.02)
- log K6 [1, 8]: 4.31 (0.02)
- log K7 [1, 8]: 3.82 (0.02)
- pε12 = averaged interactivity parameter pε¯ [1]: 0.5144
- log kA (carboxylate core microconstant) [1]: 5.697 and 5.70
- log k [1]: 5.17
SMILES: O=C(O)CCSC[C@H]1O[C@@H]2O[C@H]3[C@H](O)[C@@H](O)[C@@H](O[C@H]4[C@H](O)[C@@H](O)[C@@H](O[C@H]5[C@H](O)[C@@H](O)[C@@H](O[C@H]6[C@H](O)[C@@H](O)[C@@H](O[C@H]7[C@H](O)[C@@H](O)[C@@H](O[C@H]8[C@H](O)[C@@H](O)[C@@H](O[C@H]1[C@H](O)[C@H]2O)O[C@@H]8CSCCC(=O)O)O[C@@H]7CSCCC(=O)O)O[C@@H]6CSCCC(=O)O)O[C@@H]5CSCCC(=O)O)O[C@@H]4CSCCC(=O)O)O[C@@H]3CSCCC(=O)O [Suβ-CD, subetadex]
- log K1 ([2]; potentiometric): 6.49 (1)
- log K2 ([2]; potentiometric): 5.69 (1)
- log K3 ([2]; potentiometric): 5.25 (1)
- log K4 ([2]; potentiometric): 4.75 (1)
- log K5 ([2]; potentiometric): 4.31 (1)
- log K6 ([2]; potentiometric): 3.78 (1)
- log K7 ([2]; potentiometric): <3
- log kA [2]: 5.64

- log K4 [1, 3]: 5.28 (0.22)
- log K5 [1, 3]: 5.14 (0.22)
- log K6 [1, 3]: 4.59 (0.17)
- log K1 [1, 4]: 6.68 (0.08)
- log K2 [1, 4]: 6.17 (0.12)
- log K3 [1, 4]: 5.88 (0.16)
- log K8 ([1]; ED macro or Q-fitting evaluation, SD in parentheses): 3.78 (0.07)
- macroscopic pKa, 1st of the set [1, 10]: 3.83
- macroscopic pKa, 2nd of the set [1, 10]: 4.28
- macroscopic pKa, 3rd of the set [1, 10]: 4.65
- macroscopic pKa, 4th of the set [1, 10]: 5.03
- macroscopic pKa, 5th of the set [1, 10]: 5.43
- macroscopic pKa, 6th of the set [1, 10]: 5.81
- macroscopic pKa, 7th of the set [1, 10]: 6.18
- macroscopic pKa, 8th of the set [1, 10]: 6.64
- log k¯1 (averaged microconstant) [1, 5]: 5.77 (0.08)
- log k¯2 (averaged microconstant) [1, 5]: 5.63 (0.12)
- log k¯3 (averaged microconstant) [1, 5]: 5.58 (0.16)
- log k¯8 (averaged microconstant) [1, 5]: 4.69 (0.07)
- log k¯4 (averaged microconstant) [1, 6]: 5.18 (0.22)
- log k¯5 (averaged microconstant) [1, 6]: 5.24 (0.22)
- log k¯6 (averaged microconstant) [1, 6]: 4.89 (0.17)
- log k¯1 (averaged microconstant) [1, 7]: 5.73 (0.02)
- log k¯2 (averaged microconstant) [1, 7]: 5.64 (0.02)
- log k¯3 (averaged microconstant) [1, 7]: 5.51 (0.02)
- log k¯4 (averaged microconstant) [1, 7]: 5.33 (0.01)
- log k¯5 (averaged microconstant) [1, 7]: 5.13 (0.01)
- log k¯6 (averaged microconstant) [1, 7]: 4.95 (0.02)
- log k¯7 (averaged microconstant) [1, 7]: 4.82 (0.02)
- log k¯8 (averaged microconstant) [1, 7]: 4.73 (0.02)
- log K1 [1, 8]: 6.64 (0.02)
- log K2 [1, 8]: 6.18 (0.02)
- log K3 [1, 8]: 5.81 (0.02)
- log K4 [1, 8]: 5.43 (0.01)
- log K5 [1, 8]: 5.03 (0.01)
- log K6 [1, 8]: 4.65 (0.02)
- log K7 [1, 8]: 4.28 (0.02)
- log K8 [1, 8]: 3.83 (0.02)
- pε12 = averaged interactivity parameter pε¯ [1]: 0.503
- log kA (carboxylate core microconstant) [1]: 5.735 and 5.73
- log k [1]: 5.22
SMILES: O=C(O)CCSC[C@H]1O[C@@H]2O[C@H]3[C@H](O)[C@@H](O)[C@@H](O[C@H]4[C@H](O)[C@@H](O)[C@@H](O[C@H]5[C@H](O)[C@@H](O)[C@@H](O[C@H]6[C@H](O)[C@@H](O)[C@@H](O[C@H]7[C@H](O)[C@@H](O)[C@@H](O[C@H]8[C@H](O)[C@@H](O)[C@@H](O[C@H]9[C@H](O)[C@@H](O)[C@@H](O[C@H]1[C@H](O)[C@H]2O)O[C@@H]9CSCCC(=O)O)O[C@@H]8CSCCC(=O)O)O[C@@H]7CSCCC(=O)O)O[C@@H]6CSCCC(=O)O)O[C@@H]5CSCCC(=O)O)O[C@@H]4CSCCC(=O)O)O[C@@H]3CSCCC(=O)O [Suγ-CD, sugammadex, reference compound]

- log K ([1]; standard macroscopic evaluation, Equation (3), n = 1): 4.35 (0.01)
SMILES: O=C(O)CCSC[C@H]1O[C@@H]2O[C@H]3[C@H](O)[C@@H](O)[C@@H](O[C@H]4[C@H](O)[C@@H](O)[C@@H](O[C@H]5[C@H](O)[C@@H](O)[C@@H](O[C@H]6[C@H](O)[C@@H](O)[C@@H](O[C@H]7[C@H](O)[C@@H](O)[C@@H](O[C@H]8[C@H](O)[C@@H](O)[C@@H](O[C@H]9[C@H](O)[C@@H](O)[C@@H](O[C@H]1[C@H](O)[C@H]2O)O[C@@H]9CO)O[C@@H]8CO)O[C@@H]7CO)O[C@@H]6CO)O[C@@H]5CO)O[C@@H]4CO)O[C@@H]3CO [mono-Suγ-CD, mono-sugammadex]
